Assay results as given in PubChem BioAssay AID493119 (Broad Institute, 2011).
“And” between values parts separate entries of the source, which are not always exact repeats. Identical values can stand only once.

Test system: V. harveyi MM32 (LuxS-), AI-2-induced luminescence, 5 h
Test: inhibitors of AI-2-induced luminescence in V. harveyi MM32, dose response, mechanism study for V. harveyi quorum sensing inhibitors, strain MM32 LuxS-null, dry powder, set 2 (AID 493119)

SMILES: O=C1C=C/C(=C/Br)O1
- AC50: 3.97 µM

SMILES: COc1cc(NC(=O)CN2C(=O)NC(c3ccccc3)(c3ccccc3)C2=O)cc(OC)c1
- AC50: 1.17 µM and 1.13 µM

SMILES: Cc1cccc(NC(=O)c2ccc(Oc3ccccc3)cc2)n1
- AC50: 6.55 µM

SMILES: CCc1ccc(S(=O)(=O)Nc2ccc(Br)cn2)cc1
- AC50: 2 µM

SMILES: C=Cn1c(C(=O)O)ccc1-c1ccc(CC)cc1
- AC50: 1.72 µM and 1.57 µM

SMILES: Cc1cccc(NS(=O)(=O)c2ccc(Oc3ccccc3)cc2)n1
- AC50: 1.29 µM and 1.61 µM

SMILES: Cn1cnc(S(=O)(=O)Nc2ccc(OC(F)(F)F)cc2)c1
- AC50: 1.88 µM and 2.29 µM
